{"source": "paper PMC10046369", "about": "“Low-Affinity/High-Selectivity Dopamine Transport Inhibition Sufficient to Rescue Cognitive Functions in the Aging Rat” (Biomolecules, 2023)", "experiment_in_all_cases": "biochemical", "set-up_in_all_cases": "KINOMEscan competition binding panel, per cent of control", "details_in_all_cases": "read-out: %Ctrl @ 2800nM", "key": {"EPHB1": {"target": "EPHB1 (Homo sapiens, UniProt P54762)", "sequence (P54762 whole entry)": "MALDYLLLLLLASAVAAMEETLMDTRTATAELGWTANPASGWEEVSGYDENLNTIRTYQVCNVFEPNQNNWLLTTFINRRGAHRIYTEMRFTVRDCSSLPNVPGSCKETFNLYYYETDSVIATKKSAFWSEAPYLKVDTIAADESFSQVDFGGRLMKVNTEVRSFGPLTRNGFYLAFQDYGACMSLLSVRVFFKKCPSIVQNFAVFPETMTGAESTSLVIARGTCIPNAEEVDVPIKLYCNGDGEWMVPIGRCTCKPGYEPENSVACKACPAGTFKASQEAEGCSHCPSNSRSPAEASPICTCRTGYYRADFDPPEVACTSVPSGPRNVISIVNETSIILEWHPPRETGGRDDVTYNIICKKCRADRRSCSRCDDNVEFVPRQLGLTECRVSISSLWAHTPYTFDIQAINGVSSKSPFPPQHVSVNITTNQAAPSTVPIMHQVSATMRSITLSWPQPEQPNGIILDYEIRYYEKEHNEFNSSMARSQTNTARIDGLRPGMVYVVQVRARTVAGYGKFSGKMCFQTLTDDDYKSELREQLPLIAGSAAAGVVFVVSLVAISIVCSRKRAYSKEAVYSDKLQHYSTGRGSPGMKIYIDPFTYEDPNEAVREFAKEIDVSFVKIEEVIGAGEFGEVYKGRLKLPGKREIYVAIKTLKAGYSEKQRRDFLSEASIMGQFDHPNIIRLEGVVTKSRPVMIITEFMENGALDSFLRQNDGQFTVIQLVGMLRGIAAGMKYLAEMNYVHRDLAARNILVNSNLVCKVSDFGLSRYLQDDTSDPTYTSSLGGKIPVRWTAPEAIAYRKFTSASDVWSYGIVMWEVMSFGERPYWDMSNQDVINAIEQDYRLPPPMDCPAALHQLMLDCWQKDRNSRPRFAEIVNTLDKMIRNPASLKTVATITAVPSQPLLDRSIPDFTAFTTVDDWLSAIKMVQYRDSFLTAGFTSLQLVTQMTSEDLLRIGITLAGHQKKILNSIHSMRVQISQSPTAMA", "how_it_was_run": "(§1)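 Values are expressed as percent of control, calculated as ((test − positive control)/(negative control − positive control)) × 100, so lower numbers mean stronger hits. Binding was measured by KINOMEscan competition assay in a 450-kinase human panel including disease mutants, using the contractor's validated protocol.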"}, "RIOK3": {"target": "RIOK3 (Homo sapiens, UniProt O14730)", "sequence (O14730 whole entry)": "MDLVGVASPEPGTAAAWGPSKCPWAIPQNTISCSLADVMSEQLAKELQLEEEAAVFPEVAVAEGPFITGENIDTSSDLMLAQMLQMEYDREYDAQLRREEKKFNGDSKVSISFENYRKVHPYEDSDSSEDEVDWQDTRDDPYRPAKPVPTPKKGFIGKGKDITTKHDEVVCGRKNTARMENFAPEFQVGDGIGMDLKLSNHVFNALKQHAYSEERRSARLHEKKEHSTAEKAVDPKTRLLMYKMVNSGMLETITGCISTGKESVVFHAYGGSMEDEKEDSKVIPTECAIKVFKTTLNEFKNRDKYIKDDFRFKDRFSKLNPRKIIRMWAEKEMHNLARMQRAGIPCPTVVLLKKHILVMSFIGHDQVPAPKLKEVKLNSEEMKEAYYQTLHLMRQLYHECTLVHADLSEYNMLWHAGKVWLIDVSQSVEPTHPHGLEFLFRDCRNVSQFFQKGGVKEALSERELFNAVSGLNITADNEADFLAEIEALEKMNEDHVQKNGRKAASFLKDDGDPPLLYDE", "how_it_was_run": "as §1"}, "KIT": {"target": "KIT (Homo sapiens, UniProt P10721)", "how_it_was_run": "as §1"}, "[1]": {"target": "T1, ABL1(F317I)-phosphorylated (Homo sapiens, UniProt P00519, F317I)", "T1 construct": "phosphorylated", "how_it_was_run": "as §1"}, "PRP4": {"target": "T2, PRP4 (Homo sapiens, UniProt Q13523)", "T2 construct": "gene PRPF4B", "how_it_was_run": "as §1"}, "FGFR3(G697C)": {"target": "FGFR3(G697C) (Homo sapiens, UniProt P22607, G697C)", "sequence (P22607 whole entry G697C)": "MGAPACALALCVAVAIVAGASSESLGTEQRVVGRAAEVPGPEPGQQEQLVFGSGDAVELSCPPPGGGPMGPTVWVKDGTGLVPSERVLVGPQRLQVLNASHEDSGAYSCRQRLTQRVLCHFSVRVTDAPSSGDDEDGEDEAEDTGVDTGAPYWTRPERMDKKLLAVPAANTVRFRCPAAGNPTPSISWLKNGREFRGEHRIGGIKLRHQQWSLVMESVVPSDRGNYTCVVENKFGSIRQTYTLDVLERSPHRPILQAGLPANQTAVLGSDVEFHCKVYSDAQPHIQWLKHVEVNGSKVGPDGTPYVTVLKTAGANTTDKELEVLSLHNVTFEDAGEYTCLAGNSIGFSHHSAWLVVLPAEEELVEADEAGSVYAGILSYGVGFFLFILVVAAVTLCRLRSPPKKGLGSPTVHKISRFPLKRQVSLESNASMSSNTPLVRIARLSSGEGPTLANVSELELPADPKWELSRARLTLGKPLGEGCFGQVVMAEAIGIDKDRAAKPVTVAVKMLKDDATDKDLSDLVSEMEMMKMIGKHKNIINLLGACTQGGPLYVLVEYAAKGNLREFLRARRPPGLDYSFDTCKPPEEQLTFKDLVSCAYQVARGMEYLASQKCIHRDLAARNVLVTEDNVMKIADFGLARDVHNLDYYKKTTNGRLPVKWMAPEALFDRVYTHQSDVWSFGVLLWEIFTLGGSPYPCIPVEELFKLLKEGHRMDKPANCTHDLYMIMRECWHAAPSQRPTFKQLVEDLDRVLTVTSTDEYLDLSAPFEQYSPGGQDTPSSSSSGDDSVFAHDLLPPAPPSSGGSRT", "how_it_was_run": "as §1"}, "JNK3": {"target": "T3, JNK3 (Homo sapiens, UniProt P53779)", "T3 construct": "gene MAPK10", "how_it_was_run": "as §1"}, "MEK1": {"target": "T4, MEK1 (Homo sapiens, UniProt Q02750)", "T4 construct": "gene MAP2K1", "how_it_was_run": "as §1"}, "NLK": {"target": "NLK (Homo sapiens, UniProt Q9UBE8)", "how_it_was_run": "as §1"}, "RET(V804L)": {"target": "RET(V804L) (Homo sapiens, UniProt P07949, V804L)", "how_it_was_run": "as §1"}, "PRKCI": {"target": "PRKCI (Homo sapiens, UniProt P41743)", "how_it_was_run": "as §1"}, "FYN": {"target": "FYN (Homo sapiens, UniProt P06241)", "how_it_was_run": "as §1"}, "FGFR1": {"target": "FGFR1 (Homo sapiens, UniProt P11362)", "how_it_was_run": "as §1"}, "PRKG2": {"target": "PRKG2 (Homo sapiens, UniProt Q13237)", "how_it_was_run": "as §1"}, "EGFR(L861Q)": {"target": "EGFR(L861Q) (Homo sapiens, UniProt P00533, L861Q)", "sequence (P00533 whole entry L861Q)": "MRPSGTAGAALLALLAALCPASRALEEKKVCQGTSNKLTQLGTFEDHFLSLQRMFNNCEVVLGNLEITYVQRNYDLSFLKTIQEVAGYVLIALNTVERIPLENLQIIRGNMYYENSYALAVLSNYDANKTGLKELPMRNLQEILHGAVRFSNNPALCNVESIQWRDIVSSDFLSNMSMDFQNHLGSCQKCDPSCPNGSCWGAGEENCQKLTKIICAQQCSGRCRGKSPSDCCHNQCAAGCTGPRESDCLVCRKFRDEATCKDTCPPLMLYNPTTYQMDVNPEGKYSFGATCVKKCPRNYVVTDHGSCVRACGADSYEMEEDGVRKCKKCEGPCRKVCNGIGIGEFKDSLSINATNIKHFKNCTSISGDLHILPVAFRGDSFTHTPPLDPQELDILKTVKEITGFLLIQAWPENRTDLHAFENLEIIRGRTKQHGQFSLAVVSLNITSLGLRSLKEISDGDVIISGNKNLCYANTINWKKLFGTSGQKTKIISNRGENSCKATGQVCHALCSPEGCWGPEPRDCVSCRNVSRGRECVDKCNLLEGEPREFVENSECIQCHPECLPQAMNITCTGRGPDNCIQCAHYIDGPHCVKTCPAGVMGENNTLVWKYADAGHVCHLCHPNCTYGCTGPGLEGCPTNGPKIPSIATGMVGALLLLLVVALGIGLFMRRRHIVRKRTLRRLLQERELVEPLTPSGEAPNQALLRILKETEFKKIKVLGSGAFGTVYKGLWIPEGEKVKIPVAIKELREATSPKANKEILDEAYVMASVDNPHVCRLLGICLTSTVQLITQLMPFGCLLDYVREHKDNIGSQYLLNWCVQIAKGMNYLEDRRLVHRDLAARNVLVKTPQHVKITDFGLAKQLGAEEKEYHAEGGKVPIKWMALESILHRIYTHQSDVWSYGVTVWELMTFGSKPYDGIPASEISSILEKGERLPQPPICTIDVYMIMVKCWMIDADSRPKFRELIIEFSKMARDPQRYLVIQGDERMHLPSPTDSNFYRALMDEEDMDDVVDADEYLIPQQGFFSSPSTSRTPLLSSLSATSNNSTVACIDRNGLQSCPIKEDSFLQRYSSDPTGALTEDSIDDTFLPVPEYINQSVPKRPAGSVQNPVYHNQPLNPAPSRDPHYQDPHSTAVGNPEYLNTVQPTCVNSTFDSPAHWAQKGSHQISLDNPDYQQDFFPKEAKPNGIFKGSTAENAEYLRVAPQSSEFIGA", "how_it_was_run": "as §1"}, "LATS2": {"target": "LATS2 (Homo sapiens, UniProt Q9NRM7)", "how_it_was_run": "as §1"}, "CLK1": {"target": "CLK1 (Homo sapiens, UniProt P49759)", "how_it_was_run": "as §1"}, "MARK3": {"target": "MARK3 (Homo sapiens, UniProt P27448)", "how_it_was_run": "as §1"}, "MTOR": {"target": "MTOR (Homo sapiens, UniProt P42345)", "how_it_was_run": "as §1"}, "PDPK1": {"target": "PDPK1 (Homo sapiens, UniProt O15530)", "sequence (O15530 whole entry)": "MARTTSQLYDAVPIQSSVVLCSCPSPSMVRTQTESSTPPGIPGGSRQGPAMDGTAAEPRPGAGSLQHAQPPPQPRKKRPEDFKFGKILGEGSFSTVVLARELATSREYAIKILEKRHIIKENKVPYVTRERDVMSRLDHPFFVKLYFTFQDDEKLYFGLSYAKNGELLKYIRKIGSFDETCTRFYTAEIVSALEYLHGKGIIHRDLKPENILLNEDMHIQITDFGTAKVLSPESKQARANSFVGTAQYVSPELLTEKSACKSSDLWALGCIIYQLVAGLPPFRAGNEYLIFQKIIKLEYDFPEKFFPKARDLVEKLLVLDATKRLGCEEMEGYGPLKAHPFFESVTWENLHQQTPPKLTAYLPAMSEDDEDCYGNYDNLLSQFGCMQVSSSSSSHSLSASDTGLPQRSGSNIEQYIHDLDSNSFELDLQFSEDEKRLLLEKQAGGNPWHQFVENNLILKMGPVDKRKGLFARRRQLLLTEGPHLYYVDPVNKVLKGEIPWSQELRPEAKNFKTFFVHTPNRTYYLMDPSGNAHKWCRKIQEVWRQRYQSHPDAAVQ", "how_it_was_run": "as §1"}, "CAMK4": {"target": "CAMK4 (Homo sapiens, UniProt Q16566)", "how_it_was_run": "as §1"}, "TRKA": {"target": "T5, TRKA (Homo sapiens, UniProt P04629)", "T5 construct": "gene NTRK1", "how_it_was_run": "as §1"}, "STK36": {"target": "STK36 (Homo sapiens, UniProt Q9NRP7)", "how_it_was_run": "as §1"}, "TAK1": {"target": "T6, TAK1 (Homo sapiens, UniProt O43318)", "T6 construct": "gene MAP3K7", "how_it_was_run": "as §1"}, "HIPK4": {"target": "HIPK4 (Homo sapiens, UniProt Q8NE63)", "sequence (Q8NE63 whole entry)": "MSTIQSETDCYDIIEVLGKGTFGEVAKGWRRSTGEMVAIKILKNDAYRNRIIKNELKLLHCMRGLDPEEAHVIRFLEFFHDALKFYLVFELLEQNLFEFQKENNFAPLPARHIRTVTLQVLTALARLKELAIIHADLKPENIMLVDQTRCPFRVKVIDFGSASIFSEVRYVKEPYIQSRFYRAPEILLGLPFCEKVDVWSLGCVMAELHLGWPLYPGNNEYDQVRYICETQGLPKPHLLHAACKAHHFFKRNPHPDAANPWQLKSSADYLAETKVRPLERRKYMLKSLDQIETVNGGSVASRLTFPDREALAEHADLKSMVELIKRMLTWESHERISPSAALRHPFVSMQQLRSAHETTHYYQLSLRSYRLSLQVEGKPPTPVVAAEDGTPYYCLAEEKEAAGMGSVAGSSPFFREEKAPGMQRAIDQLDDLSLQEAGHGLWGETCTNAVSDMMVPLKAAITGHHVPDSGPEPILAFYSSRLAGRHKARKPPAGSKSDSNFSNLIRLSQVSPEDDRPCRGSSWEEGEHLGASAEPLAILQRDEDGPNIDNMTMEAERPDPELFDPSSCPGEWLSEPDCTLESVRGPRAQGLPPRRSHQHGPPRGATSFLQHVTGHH", "how_it_was_run": "as §1"}, "ABL1-nonphosphorylated": {"target": "T7, ABL1-nonphosphorylated (Homo sapiens, UniProt P00519)", "T7 construct": "nonphosphorylated", "how_it_was_run": "as §1"}}, "data": [{"compound": "[O-][S@@+](Cc1cncs1)C(c1ccccc1)c1ccccc1", "note": "[S-CE-123, (S)-5-((Benzhydrylsulfinyl)Methyl)Thiazole]", "values": [{"measurement": "remaining binding at 2.8 µM", "setting": "EPHB1", "result": 100, "unit": "%"}, {"measurement": "remaining binding at 2.8 µM", "setting": "RIOK3", "result": 97, "unit": "%"}, {"measurement": "remaining binding at 2.8 µM", "setting": "KIT", "result": 97, "unit": "%"}, {"measurement": "remaining binding at 2.8 µM", "setting": "[1]", "result": 92, "unit": "%"}, {"measurement": "remaining binding at 2.8 µM", "setting": "PRP4", "result": 92, "unit": "%"}, {"measurement": "remaining binding at 2.8 µM", "setting": "FGFR3(G697C)", "result": 96, "unit": "%"}, {"measurement": "remaining binding at 2.8 µM", "setting": "JNK3", "result": 74, "unit": "%"}, {"measurement": "remaining binding at 2.8 µM", "setting": "MEK1", "result": 94, "unit": "%"}, {"measurement": "remaining binding at 2.8 µM", "setting": "NLK", "result": 97, "unit": "%"}, {"measurement": "remaining binding at 2.8 µM", "setting": "RET(V804L)", "result": 91, "unit": "%"}, {"measurement": "remaining binding at 2.8 µM", "setting": "PRKCI", "result": 100, "unit": "%"}, {"measurement": "remaining binding at 2.8 µM", "setting": "FYN", "result": 93, "unit": "%"}, {"measurement": "remaining binding at 2.8 µM", "setting": "FGFR1", "result": 100, "unit": "%"}, {"measurement": "remaining binding at 2.8 µM", "setting": "PRKG2", "result": 99, "unit": "%"}, {"measurement": "remaining binding at 2.8 µM", "setting": "EGFR(L861Q)", "result": 98, "unit": "%"}, {"measurement": "remaining binding at 2.8 µM", "setting": "LATS2", "result": 100, "unit": "%"}, {"measurement": "remaining binding at 2.8 µM", "setting": "CLK1", "result": 96, "unit": "%"}, {"measurement": "remaining binding at 2.8 µM", "setting": "MARK3", "result": 70, "unit": "%"}, {"measurement": "remaining binding at 2.8 µM", "setting": "MTOR", "result": 100, "unit": "%"}, {"measurement": "remaining binding at 2.8 µM", "setting": "PDPK1", "result": 95, "unit": "%"}, {"measurement": "remaining binding at 2.8 µM", "setting": "CAMK4", "result": 91, "unit": "%"}, {"measurement": "remaining binding at 2.8 µM", "setting": "TRKA", "result": 100, "unit": "%"}, {"measurement": "remaining binding at 2.8 µM", "setting": "STK36", "result": 88, "unit": "%"}, {"measurement": "remaining binding at 2.8 µM", "setting": "TAK1", "result": 71, "unit": "%"}, {"measurement": "remaining binding at 2.8 µM", "setting": "HIPK4", "result": 100, "unit": "%"}, {"measurement": "remaining binding at 2.8 µM", "setting": "ABL1-nonphosphorylated", "result": 93, "unit": "%"}]}]}
